Legend:
[1] = molecular target: Signal transducer and activator of transcription 1-alpha/beta (Homo sapiens, UniProt P42224); assay: Inhibition of SH2 domain of STAT1 (unknown origin) using FITC-GpYDKPHVL as substrate preincubated for 15 mins before substrate addition measured after 90 mins by alphascreen based assay
NCI-H522 = assay: Cytotoxicity against human NCI-H522 cells after 48 hrs by sulforhodamine B assay; assay type: functional; conditions: NCI-H522, 48 h
ACHN = assay: Cytotoxicity against human ACHN cells after 48 hrs by sulforhodamine B assay; assay type: functional
786-0 = assay: Cytotoxicity against human 786-0 cells after 48 hrs by sulforhodamine B assay; assay type: functional; conditions: 786-0, 48 h
HCC 2998 = assay: Cytotoxicity against human HCC2998 cells after 48 hrs by sulforhodamine B assay; assay type: functional; conditions: HCC 2998, 48 h
[2] = Cytotoxicity against human EKVX cells after 48 hrs by sulforhodamine B assay; assay type: functional
SK-OV-3 = assay: Cytotoxicity against human SKOV3 cells after 48 hrs by sulforhodamine B assay; assay type: functional; conditions: SK-OV-3, 48 h
CAKI-1 = assay: Cytotoxicity against human CAKI-1 cells after 48 hrs by sulforhodamine B assay; assay type: functional; conditions: CAKI-1, 48 h
[3] = Cytotoxicity against human UACC257 cells after 48 hrs by sulforhodamine B assay; assay type: functional; conditions: UACC-257, 48 h
[4] = Cytotoxicity against human UACC62 cells after 48 hrs by sulforhodamine B assay; assay type: functional; conditions: UACC-62, 48 h
[5] = molecular target: Growth factor receptor-bound protein 2 (Homo sapiens, UniProt P62993); assay: Inhibition of SH2 domain of GRB2 (unknown origin) using FITC-PSpYVNVQN as substrate at 30 uM preincubated for 15 mins before substrate addition measured after 90 mins by alphascreen based assay
HCT-116 = assay: Cytotoxicity against human HCT116 cells after 48 hrs by sulforhodamine B assay; assay type: functional; conditions: HCT-116, 48 h
A549 = assay: Cytotoxicity against human A549 cells after 48 hrs by sulforhodamine B assay; assay type: functional; conditions: A549, 48 h
SF-295 = assay: Cytotoxicity against human SF295 cells after 48 hrs by sulforhodamine B assay; assay type: functional; conditions: SF-295, 48 h
TK-10 = assay: Cytotoxicity against human TK10 cells after 48 hrs by sulforhodamine B assay; assay type: functional; conditions: TK-10, 48 h
BT-549 = assay: Cytotoxicity against human BT549 cells after 48 hrs by sulforhodamine B assay; assay type: functional; conditions: BT-549, 48 h
NCI-H322M = assay: Cytotoxicity against human NCI-H322M cells after 48 hrs by sulforhodamine B assay; assay type: functional
[6] = Cytotoxicity against human OVCAR4 cells after 48 hrs by sulforhodamine B assay; assay type: functional; conditions: OVCAR-4, 48 h
T47D = assay: Cytotoxicity against human T47D cells after 48 hrs by sulforhodamine B assay; assay type: functional
SR = assay: Cytotoxicity against human SR cells after 48 hrs by sulforhodamine B assay; assay type: functional
SK-MEL-2 = assay: Cytotoxicity against human SK-MEL-2 cells after 48 hrs by sulforhodamine B assay; assay type: functional; conditions: SK-MEL-2, 48 h
SNB-19 = assay: Cytotoxicity against human SNB19 cells after 48 hrs by sulforhodamine B assay; assay type: functional; conditions: SNB-19, 48 h
[7] = read-out: LC50 (the source's name)
[8] = read-out: pLC50 (the source's name) (converted)

Signal transducer and activator of transcription 1-alpha/beta, sequence (P42224 whole entry, the tested form may be a part): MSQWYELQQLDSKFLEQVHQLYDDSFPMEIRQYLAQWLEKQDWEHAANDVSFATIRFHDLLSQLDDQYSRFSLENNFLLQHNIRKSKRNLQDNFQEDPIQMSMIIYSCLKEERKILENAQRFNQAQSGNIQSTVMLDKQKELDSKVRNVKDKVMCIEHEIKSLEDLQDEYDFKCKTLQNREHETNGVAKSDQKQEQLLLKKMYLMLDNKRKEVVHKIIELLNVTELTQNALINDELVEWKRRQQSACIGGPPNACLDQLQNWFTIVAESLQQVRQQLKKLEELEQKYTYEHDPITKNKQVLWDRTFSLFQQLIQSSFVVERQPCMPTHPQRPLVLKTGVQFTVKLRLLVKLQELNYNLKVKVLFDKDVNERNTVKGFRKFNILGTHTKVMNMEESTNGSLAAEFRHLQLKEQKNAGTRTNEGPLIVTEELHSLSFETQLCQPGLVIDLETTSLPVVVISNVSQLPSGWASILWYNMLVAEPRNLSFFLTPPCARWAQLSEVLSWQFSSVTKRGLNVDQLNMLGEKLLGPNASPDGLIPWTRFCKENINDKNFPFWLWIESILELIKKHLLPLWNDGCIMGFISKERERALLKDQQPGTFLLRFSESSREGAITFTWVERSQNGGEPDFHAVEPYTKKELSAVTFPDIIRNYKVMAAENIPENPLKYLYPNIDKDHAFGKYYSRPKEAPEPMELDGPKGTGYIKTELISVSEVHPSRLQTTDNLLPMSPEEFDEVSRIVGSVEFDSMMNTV
Growth factor receptor-bound protein 2, sequence (P62993 whole entry, looked up, the tested form may be a part): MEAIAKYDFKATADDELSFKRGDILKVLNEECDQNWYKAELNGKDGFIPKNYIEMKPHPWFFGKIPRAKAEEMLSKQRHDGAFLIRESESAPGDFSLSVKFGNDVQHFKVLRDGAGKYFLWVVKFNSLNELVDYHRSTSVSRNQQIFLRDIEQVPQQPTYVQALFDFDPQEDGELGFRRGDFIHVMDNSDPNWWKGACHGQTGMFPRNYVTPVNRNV

O=C(Nc1nonc1-c1ccc(Cl)cc1)c1ccc(C(F)(F)F)cc1
IC50 [1]: 7.2 µM | GI50 (NCI-H522; read-out: GI50): 2.07 µM | CC50 (NCI-H522; [7]): > 100 µM | TGI (NCI-H522; read-out: TGI): 7.12 µM | GI50 (NCI-H522; read-out: pGI50 (converted)): 2.09 µM | CC50 (NCI-H522; [8]): > 100 µM | TGI (NCI-H522; read-out: pTGI (converted)): 7.08 µM | GI50 (ACHN; read-out: GI50): 3.1 µM | CC50 (ACHN; [7]): > 100 µM | TGI (ACHN; read-out: TGI): 8.74 µM | GI50 (ACHN; read-out: pGI50 (converted)): 3.09 µM | CC50 (ACHN; [8]): > 100 µM | TGI (ACHN; read-out: pTGI (converted)): 8.71 µM | GI50 (786-0; read-out: GI50): 1.98 µM | LC50 (786-0; read-out: LC50): > 100 µM | TGI (786-0; read-out: TGI): 5.19 µM | GI50 (786-0; read-out: pGI50 (converted)): 2 µM | LC50 (786-0; read-out: pLC50 (converted)): > 100 µM | TGI (786-0; read-out: pTGI): 5.25 µM | GI50 (HCC 2998; read-out: GI50): 3.63 µM | CC50 (HCC 2998; [7]): > 100 µM | TGI (HCC 2998; read-out: TGI): > 100 µM | GI50 (HCC 2998; read-out: pGI50 (converted)): 3.63 µM | CC50 (HCC 2998; [8]): > 100 µM | TGI (HCC 2998; read-out: pTGI): > 100 µM | GI50 ([2]; read-out: GI50): 3.4 µM | CC50 [2, 7]: > 100 µM | TGI ([2]; read-out: TGI): 33.6 µM | GI50 ([2]; read-out: pGI50 (converted)): 3.39 µM | CC50 [2, 8]: > 100 µM | TGI ([2]; read-out: pTGI (converted)): 33.9 µM | GI50 (SK-OV-3; read-out: GI50): 2.92 µM | CC50 (SK-OV-3; [7]): > 100 µM | TGI (SK-OV-3; read-out: TGI): 7.6 µM | GI50 (SK-OV-3; read-out: pGI50 (converted)): 2.88 µM | CC50 (SK-OV-3; [8]): > 100 µM | TGI (SK-OV-3; read-out: pTGI (converted)): 7.59 µM | GI50 (CAKI-1; read-out: GI50): 1.9 µM | CC50 (CAKI-1; [7]): > 100 µM | TGI (CAKI-1; read-out: TGI): 7.59 µM | GI50 (CAKI-1; read-out: pGI50 (converted)): 1.91 µM | CC50 (CAKI-1; [8]): > 100 µM | TGI (CAKI-1; read-out: pTGI (converted)): 7.59 µM | GI50 ([3]; read-out: GI50): 2.17 µM | LC50 (50% lethal concentration) ([3]; read-out: LC50): > 100 µM | TGI ([3]; read-out: TGI): 9.02 µM | GI50 ([3]; read-out: pGI50 (converted)): 2.19 µM | LC50 (50% lethal concentration) ([3]; read-out: pLC50 (converted)): > 100 µM | TGI ([3]; read-out: pTGI (converted)): 9.12 µM | GI50 ([4]; read-out: GI50): 2.11 µM | CC50 [4, 7]: > 100 µM | TGI ([4]; read-out: TGI): 6.83 µM | GI50 ([4]; read-out: pGI50 (converted)): 2.09 µM | CC50 [4, 8]: > 100 µM | TGI ([4]; read-out: pTGI (converted)): 6.76 µM | inhibition [5]: 10.5% | GI50 (HCT-116; read-out: GI50): 2.17 µM | CC50 (HCT-116; [7]): > 100 µM | GI50 (HCT-116; read-out: pGI50 (converted)): 2.19 µM | CC50 (HCT-116; [8]): > 100 µM | GI50 (A549; read-out: GI50): 2.53 µM | CC50 (A549; [7]): > 100 µM | TGI (A549; read-out: TGI): > 100 µM | GI50 (A549; read-out: pGI50 (converted)): 2.51 µM | CC50 (A549; [8]): > 100 µM | TGI (A549; read-out: pTGI): > 100 µM | GI50 (SF-295; read-out: GI50): 1.02 µM | CC50 (SF-295; [7]): 43.4 µM | TGI (SF-295; read-out: TGI): 3.72 µM | GI50 (SF-295; read-out: pGI50 (converted)): 1.02 µM | CC50 (SF-295; [8]): > 100 µM | TGI (SF-295; read-out: pTGI (converted)): 3.72 µM | GI50 (TK-10; read-out: GI50): 6.75 µM | CC50 (TK-10; [7]): > 100 µM | TGI (TK-10; read-out: TGI): > 100 µM | GI50 (TK-10; read-out: pGI50 (converted)): 6.76 µM | CC50 (TK-10; [8]): > 100 µM | TGI (TK-10; read-out: pTGI): > 100 µM | GI50 (BT-549; read-out: GI50): 2.22 µM | CC50 (BT-549; [7]): > 100 µM | TGI (BT-549; read-out: TGI): 7.66 µM | GI50 (BT-549; read-out: pGI50 (converted)): 2.24 µM | CC50 (BT-549; [8]): > 100 µM | TGI (BT-549; read-out: pTGI (converted)): 7.59 µM | GI50 (NCI-H322M; read-out: GI50): 1.78 µM | CC50 (NCI-H322M; [7]): > 100 µM | TGI (NCI-H322M; read-out: TGI): > 100 µM | GI50 (NCI-H322M; read-out: pGI50 (converted)): 1.78 µM | CC50 (NCI-H322M; [8]): > 100 µM | TGI (NCI-H322M; read-out: pTGI): > 100 µM | GI50 ([6]; read-out: GI50): 1.83 µM | TGI ([6]; read-out: TGI): 4.21 µM | GI50 ([6]; read-out: pGI50 (converted)): 1.82 µM | TGI ([6]; read-out: pTGI (converted)): 4.17 µM | GI50 (T47D; read-out: GI50): 3.13 µM | CC50 (T47D; [7]): > 100 µM | TGI (T47D; read-out: TGI): > 100 µM | GI50 (T47D; read-out: pGI50 (converted)): 3.16 µM | CC50 (T47D; [8]): > 100 µM | TGI (T47D; read-out: pTGI): > 100 µM | GI50 (SR; read-out: GI50): 2.85 µM | CC50 (SR; [7]): > 100 µM | TGI (SR; read-out: TGI): 10.6 µM | GI50 (SR; read-out: pGI50 (converted)): 2.82 µM | CC50 (SR; [8]): > 100 µM | TGI (SR; read-out: pTGI (converted)): 10.7 µM | GI50 (SK-MEL-2; read-out: GI50): 2.1 µM | LC50 (concentration killing 50% of cells) (SK-MEL-2; read-out: LC50): > 100 µM | TGI (SK-MEL-2; read-out: TGI): 5.11 µM | GI50 (SK-MEL-2; read-out: pGI50 (converted)): 2.09 µM | LC50 (concentration killing 50% of cells) (SK-MEL-2; read-out: pLC50 (converted)): > 100 µM | TGI (SK-MEL-2; read-out: pTGI (converted)): 5.13 µM | GI50 (SNB-19; read-out: GI50): 3.38 µM | CC50 (SNB-19; [7]): > 100 µM | TGI (SNB-19; read-out: TGI): > 100 µM | GI50 (SNB-19; read-out: pGI50 (converted)): 3.39 µM | CC50 (SNB-19; [8]): > 100 µM | TGI (SNB-19; read-out: pTGI): > 100 µM
